# According to paper PMC10455802, “A New Mild Method for Synthesis of Marine Alkaloid Fascaplysin and Its Therapeutically Promising Derivatives” (Marine Drugs, 2023):
# How the values were obtained:
# [1] = Solubility observation of debenzylation product; format: physicochemical; conditions: product of benzyl removal from 3, presumably quinoid compound
# Text: (§1) It was proposed based on the HRMS data, and its obtainment can be explained by the tendency towards oxidation of the fragment of p-hydroxyaminophenol of compound 26 (Scheme 6).
# [2] = tested on: LNCaP cells (human prostate cancer); assay: MTT assay, LNCaP; format: cell-based; conditions: 48 h, mean ± SD
# Text: (§2) To investigate the effect of the tert-butyl group on anticancer activity and selectivity, we evaluated the cytotoxic activity of unsubstituted fascaplysin (1) and 6-tert-butylfascaplysin (4) in various cancer and non-cancer cell lines using the well-established MTT method (Table 4). The effects on the human prostate cancer cells PC3 and DU145 (hormone-independent cells), 22Rv1 (partially hormone-independent cells), and LNCaP (hormone-sensitive cells), as well as on the normal (non-cancerous) human cells PNT2, MRC-9, and HEK293, were investigated. The mean cytotoxicity of compound 4 towards either cancerous or non-cancerous cells decreased by ~2-fold compared to that of fascaplysin (1).
# (§3) Cell lines PC-3, DU145, 22Rv1, and LNCaP (human prostate cancer), as well as PNT2 (human prostate non-cancer), were purchased from ATCC (Manassas, VA, USA). Human embryonic kidney cells HEK 293T and human fibroblasts MRC-9 cell lines were purchased from ECACC (Salisbury, UK). […] The cells were cultured at 37 °C as monolayers in a humidified atmosphere of 5% CO2. […]
# (§4) The cytotoxic activity of the synthesized compounds was examined using an MTT assay, which was performed as previously reported. […] The absorbance of the DMSO solutions was measured using a TECAN Infinite F200PRO reader (Männedorf, Switzerland). IC50 were calculated with the GraphPad Prism v.9.1.1 (San Diego, CA, USA).
# [3] = tested on: PC-3 cells (human prostate cancer); assay: MTT assay, PC-3; format: cell-based; conditions: PC-3, 48 h, mean ± SD
# Text: as §2, §3, §4
# [4] = tested on: 22Rv1 cells (human prostate cancer); assay: MTT assay, 22Rv1; format: cell-based; conditions: 22Rv1, 48 h, mean ± SD
# Text: as §2, §3, §4
# [5] = tested on: HEK293 cells (human embryonic kidney); assay: MTT assay, HEK293; format: cell-based; conditions: HEK293, 48 h, mean ± SD
# Text: as §2, §3, §4
# [6] = tested on: normal (non-cancerous) human cells PNT2, MRC-9, HEK293; assay: MTT assay, non-cancer cells (average); format: cell-based; conditions: mean of PNT2, MRC-9, HEK293
# Text: as §2, §3, §4
# [7] = tested on: DU145 cells (human prostate cancer); assay: MTT assay, DU145; format: cell-based; conditions: DU-145, DU145, 48 h, mean ± SD
# Text: as §2, §3, §4
# [8] = tested on: MRC-9 cells (human fibroblasts); assay: MTT assay, MRC-9; format: cell-based; conditions: MRC9, MRC-9, 48 h, mean ± SD
# Text: as §2, §3, §4
# [9] = tested on: PNT2 cells (human prostate non-cancer); assay: MTT assay, PNT2; format: cell-based; conditions: PNT2, 48 h, mean ± SD
# Text: as §2, §3, §4
# [10] = tested on: human prostate cancer cells PC-3, 22Rv1, DU145, LNCaP; assay: MTT assay, cancer cells (average); format: cell-based; conditions: mean of PC-3, 22Rv1, DU145, LNCaP
# Text: as §2, §3, §4
# [11] = tested on: human prostate cancer cells and normal (non-cancerous) human cells; assay: MTT assay, cancer and non-cancer cell lines together (selectivity, overall cytotoxicity); format: cell-based
# Text: as §2
# Cell lines PC-3, DU145, 22Rv1, and LNCaP (human prostate cancer), as well as PNT2 (human prostate non-cancer), were purchased from ATCC (Manassas, VA, USA). Human embryonic kidney cells HEK 293T and human fibroblasts MRC-9 cell lines were purchased from ECACC (Salisbury, UK). […] The cells were cultured at 37 °C as monolayers in a humidified atmosphere of 5% CO2. The culture mediums used for cultivation and experiments: for PNT2, LNCaP, 22Rv1, PC-3, and DU145 cells—RPMI Glutamax^TM-I medium (gibco® Life Technologies^TM, Paisley, UK), supplemented with 10% FBS (gibco® Life Technologies^TM) and 1% penicillin/streptomycin (Invitrogen, Waltham, MA, USA); for MRC-9 and HEK 293 cells—DMEM GlutamaxTM-I medium (gibco® Life Technologies^TM), supplemented with 10% FBS and 1% penicillin/streptomycin.
# as §4, with “reported. In brief, the cells were seeded in 96-well plates (6000 cells/well) and incubated overnight. The medium was replaced with fresh medium containing the tested drugs, and the cells were incubated for an additional 48 h.” for “reported.”
# [12] = tested on: double-stranded calf thymus DNA; assay: Thiazole orange displacement (DNA intercalation assay); format: binding; conditions: compared to fascaplysin (1)
# Experimental: As the intercalation into DNA is considered an important component of the biological mechanism of action of fascaplysin, we evaluated and compared this activity for the synthesized 6-tert-butylfascaplysin (4) and unsubstituted fascaplysin (1). The drug–DNA complex formation was assessed by a fluorescent intercalator displacement assay based on the detachment of the thiazole orange (TO) intercalating agent from the DNA duplex by the tested compounds. The half-maximal concentrations for the effective displacement of TO from the DNA complex were calculated and are presented in Figure 3. In this experiment, the well-established DNA-binding compound, propidium iodide (PI), was used as a positive control.
# A thiazole displacement assay was performed to measure the DNA intercalation activity. A mixture, containing 1 μM of double-stranded calf thymus DNA (recalculated as a concentration of base pairs) and 2 μM of thiazole orange (TO) staining agent dissolved in H2O, was used. The fascaplysins were added at concentrations of 0.39–25 μM. The DMSO concentration in the samples was not more than 0.02%. […] TO fluorescence was measured 7 min post-incubation at room temperature using a multimodal plate reader TECAN Spark (Männedorf, Switzerland) at the excitation λ = 480 nm. Fluorescence was recorded at λ = 530 nm with the bandwidth 10 nm. […]
# [13] = format: physicochemical
# Experimental: as §1
# Method A. Freshly distilled BF3·OEt2 (0.02 mL, […]) in 2 mL of dry acetonitrile was slowly added to a stirred solution of 3 (5 mg, 0.01 mmol) and anhydrous NaI (2 mg, […]) in 5 mL of dry acetonitrile at 0 °C for 10–15 min. The mixture was stirred at 0 °C for 2 h and then for another 8 h at room temperature. The reaction was monitored by TLC. The formation of a rapidly oxidizing compound, presumably compound 27, with by-products was observed.
# Method B. To 5 mg of 9-benzyloxyfascaplysin (0.01 mmol) in 5 mL of ethanol in a 10 mL flat-bottom flask, a catalytic amount of 10% palladium on carbon was added; this was sealed with a septum and left to stir under a hydrogen atmosphere on a magnetic stirrer at room temperature for 16 h. The reaction mixture changed color to green after 15 min. The progress of the reaction was monitored by TLC. The formation of a rapidly oxidizing compound, presumably compound 27, with by-products was observed.
solubility [1],chemical stability [13],SMILES,IC50 [2] [nM],IC50 [3] [nM],IC50 [4] [nM],IC50 [5] [nM],IC50 [6] [nM],IC50 [7] [nM],IC50 [8] [nM],IC50 [9] [nM],IC50 [10] [nM],"IC50 ([11]; Homo sapiens, all tested cancer and non-cancer cell lines, read-out: IC50 in either cell line) [nM]",Selectivity index (SI) ([11]; SI = mean [IC50 non-cancer cells]/mean [IC50 cancer cells]),fold decrease of mean cytotoxicity compared to fascaplysin (1) ([11]; towards either cancerous or non-cancerous cells),fold less effective at displacing TO from the fluorescent complex with DNA than 1 [12] [fold]
extremely poorly soluble,,O=c1ccc2nc3c(cc[n+]4c5ccccc5c(=O)c34)c-2c1 [Compound 27],,,,,,,,,,,,,
,,"O=C1c2ccccc2-[n+]2ccc3c([nH]c4ccccc43)c21 [Compound 1, fascaplysin]",409 ± 20,766 ± 126,242,458 ± 190,602,798 ± 54,890 ± 46,457 ± 75,554,,,,
,,"CC(C)(C)c1cc2c([nH]c3ccccc32)c2[n+]1-c1ccccc1C2=O [Compound 4, 6-tert-butylfascaplysin]",1330 ± 240,1100 ± 76,580 ± 73,348 ± 90,1180,1730 ± 172,1370 ± 424,1820 ± 448,1190,≤ 2000,0.99,~ 2 fold,7
,chemically highly unstable,"O=C1c2ccccc2-[n+]2ccc3c([nH]c4ccc(O)cc43)c21 [Compound 26, 9-hydroxyfascaplysin]",,,,,,,,,,,,,
